Experimental data published in patent US10023538B2, “Compounds, compositions and associated methods comprising 3-aryl quinolines” (Oregon Health & Science University, priority 2012, dated 2018).
Where two headings read alike, the source gives them in different places.

Experiments:
P. falciparum strain D6 = test: Antiplasmodial fluorescence-based SyBr Green assay, strain D6; type: cell-based, Plasmodium falciparum
Protocol: (§1) The IC50 values listed in Table 1 were determined by the fluorescence-based SyBr Green assay described in Smilkstein (Smilkstein M, Antimicrob Agents Chemother 48, 1803-1806 (2004)). Values are the mean of at least two experiments, each performed in triplicate. […] NT=not tested.

P. falciparum strain Dd2 = test: Antiplasmodial fluorescence-based SyBr Green assay, strain Dd2; type: cell-based, Plasmodium falciparum
Protocol: as §1

P. yoelii = test: In vivo efficacy, P. yoelii mouse model of malaria (Strain K model); set-up: species or system female CF1 mice; conditions: P. yoelii / CF1 mice
Protocol: The efficacy of Compound 1 in vivo using a P. yoelii mouse model of malaria (Strain K model) was studied. Female CF1 mice were inoculated intravenously with 1-2 million infected red blood cells obtained from infected donor animals. Infected cells were collected then randomly sorted into groups of four mice on Day 0. Drug administration began on Day 1. […] Both drugs were administered daily by gavage as the dihydrochloride salt dissolved in 100 μl of water for Days, 1, 2, 3, and 4. Blood films were prepared on Day 5 (the day after the final drug dose), fixed in methanol, stained with Giemsa, and viewed microscopically to assess parasitemia.

P. falciparum strain 7G8 = test: Antiplasmodial fluorescence-based SyBr Green assay, strain 7G8; type: cell-based, Plasmodium falciparum
Protocol: as §1

[1] = test system: P. falciparum strain Tm90.C2B; test: Antiplasmodial activity against strain Tm90.C2B; type: cell-based, Plasmodium falciparum
Protocol: as §1
Furthermore, Compound 1 was evaluated against the strain Tm90.C2B.

P. falciparum strains = test: Antiplasmodial IC50 across P. falciparum strains (average / range); type: cell-based, Plasmodium falciparum
Protocol: as §1

hERG potassium channel = hERG potassium channel (Homo sapiens, UniProt Q12809); test: hERG channel inhibition, QPatch HT automatic parallel patch clamp; type: cell-based; conditions: hERG current expressed in mammalian cells, room temperature, tested at 1, 4, 12 μM in duplicate
[2] = Cytotoxicity vs. murine splenic lymphocytes; type: cell-based; conditions: mouse
[3] = Heme binding affinity in solution (UV/visible titration, NMR); conditions: 20 mM phosphate buffer, pH 7.0, 25° C.; titration and NMR
Protocol: The binding affinity of Compound 1 and heme in solution was assessed as described by Kelly (Kelly, J X et al, Antimicrob Agents Chemother 46, 144-150 (2002); Kelly J X et al, Mol Biochem Parasitol 123, 47-54 (2002)). This assay correlates heme binding affinity and the mode of binding (i.e., binding to heme monomer or dimer) to intrinsic antimalarial activity in vitro and in vivo.
Association constants for heme-drug complexes were determined with all titrations conducted under aqueous conditions in 20 mM phosphate buffer, at pH 7.0 and 25° C. Titrations with compounds were performed by successive addition of aliquots of a 1 mM stock solution to a 10 μM heme solution at constant pH. All UV/visible spectral data was analyzed digitally with absorbance readings and concentrations corrected for dilution effects. The resulting titration curves were analyzed with Hill plot (Cantor and Schimmel, Biophysical Chemistry, W H Freeman and Co, New York, 1980) and non-linear curve fitting methods (Connors, Chemical Kinetics, VCH Publishers, New York, 1990). Titration curves were fit to the most accurate binding isotherm and stoichiometry.
Heme:drug interaction was assessed by NMR. NMR investigations involving Compound 1 binding to heme were performed as described in Kelly (Kelly, et al, supra).

[4] = Plasmodium falciparum, D6, read-out: IC50 Values (nM) Strain D6
[5] = Plasmodium falciparum, DD2, read-out: IC50 Values (nM) Strain Dd2
[6] = Plasmodium falciparum, 7G8, read-out: IC50 Values (nM) Strain 7G8
[7] = P. falciparum D6, chloroquine sensitive; mean of at least two experiments in triplicate; read-out: IC50 Values (nM) Strain D6
[8] = P. falciparum Dd2, multidrug resistant, mean of at least two experiments in triplicate, read-out: IC50 Values (nM) Strain Dd2
[9] = P. falciparum 7G8, multidrug resistant, mean of at least two experiments in triplicate, read-out: IC50 Values (nM) Strain 7G8
[10] = Plasmodium falciparum, D6; read-out: IC50 Values (nM) Strain D6
[11] = Plasmodium falciparum, P. falciparum Dd2, multidrug resistant, mean of at least two experiments in triplicate, read-out: IC50 Values (nM) Strain Dd2
[12] = Plasmodium falciparum, P. falciparum 7G8, multidrug resistant, mean of at least two experiments in triplicate, read-out: IC50 Values (nM) Strain 7G8
[13] = Plasmodium falciparum, P. falciparum Tm90.C2B, multidrug and atovaquone resistant, unit inferred, read-out: IC50 value against strain Tm90.C2B

hERG potassium channel, sequence (Q12809 whole entry): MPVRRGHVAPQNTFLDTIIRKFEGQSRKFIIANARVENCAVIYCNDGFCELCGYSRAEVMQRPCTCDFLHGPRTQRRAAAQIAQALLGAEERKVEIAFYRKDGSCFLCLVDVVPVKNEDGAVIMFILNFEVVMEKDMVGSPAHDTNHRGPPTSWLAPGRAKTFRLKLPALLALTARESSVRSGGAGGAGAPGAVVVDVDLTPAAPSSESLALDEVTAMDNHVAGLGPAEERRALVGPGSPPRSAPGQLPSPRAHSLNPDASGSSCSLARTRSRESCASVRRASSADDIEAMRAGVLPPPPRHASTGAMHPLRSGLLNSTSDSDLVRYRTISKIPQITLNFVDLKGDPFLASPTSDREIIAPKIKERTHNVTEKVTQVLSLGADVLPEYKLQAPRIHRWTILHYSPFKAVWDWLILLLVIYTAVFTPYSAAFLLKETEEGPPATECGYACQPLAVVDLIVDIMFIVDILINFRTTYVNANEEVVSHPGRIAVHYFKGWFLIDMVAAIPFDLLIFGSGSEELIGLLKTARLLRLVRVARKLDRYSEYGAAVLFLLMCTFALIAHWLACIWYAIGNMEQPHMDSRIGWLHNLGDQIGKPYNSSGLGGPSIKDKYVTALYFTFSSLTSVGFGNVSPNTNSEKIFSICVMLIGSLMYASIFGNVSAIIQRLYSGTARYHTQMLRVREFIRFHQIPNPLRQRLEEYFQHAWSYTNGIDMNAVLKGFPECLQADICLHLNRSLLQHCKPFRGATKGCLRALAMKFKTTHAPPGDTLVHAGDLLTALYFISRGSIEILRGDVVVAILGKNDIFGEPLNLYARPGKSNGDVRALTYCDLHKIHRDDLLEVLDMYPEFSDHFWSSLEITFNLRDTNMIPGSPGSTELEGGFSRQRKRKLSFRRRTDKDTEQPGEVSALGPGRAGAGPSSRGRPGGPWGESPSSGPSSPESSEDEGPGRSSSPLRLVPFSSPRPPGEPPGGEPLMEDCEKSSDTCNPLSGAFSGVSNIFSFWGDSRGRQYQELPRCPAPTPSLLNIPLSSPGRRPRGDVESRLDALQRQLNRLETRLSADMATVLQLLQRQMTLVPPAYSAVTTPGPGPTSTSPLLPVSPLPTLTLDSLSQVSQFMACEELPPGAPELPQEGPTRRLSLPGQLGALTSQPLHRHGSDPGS

Compound	IC50 (P. falciparum strain D6; [10]) [nM]	IC50 (P. falciparum strain Dd2; [11]) [nM]	IC50 (P. falciparum strain 7G8; [12]) [nM]	further results
CCN(CC)CCCC(C)Nc1ccnc2cc(Cl)ccc12 (stereo not shown) [Chloroquine, reference compound]	–	–	–	IC50 (P. falciparum strain D6; [4]): 9.2 nM; IC50 (P. falciparum strain Dd2; [5]): 120 nM; Cure of animals (P. yoelii; at dosages as high as 64 mg/kg/day): did not cure any of the animals; IC50 (P. falciparum strain 7G8; [6]): 78 nM; IC50 ([1]; Plasmodium falciparum, TM90, read-out: IC50 value against strain Tm90.C2B): 106 nM
CCN(CC)CCCC(C)Nc1c(C)cnc2cc(Cl)ccc12 (stereo not shown) [Sontochin, reference compound]	–	–	–	IC50 (P. falciparum strain D6; [7]): 8 nM; IC50 (P. falciparum strain Dd2; [8]): 19 nM; IC50 (P. falciparum strain 7G8; [9]): 20 nM; IC50 (P. falciparum strains; range over Table 1 strains, read-out: IC50 values against the drug resistant strains of P. falciparum (range)): 8 to 20 nM; IC50 ([1]; P. falciparum Tm90.C2B, multidrug and atovaquone resistant, unit inferred, read-out: IC50 value against strain Tm90.C2B): 19.1 nM
CC(C)(C)NCCCNc1c(-c2cccc(OC(F)(F)F)c2)cnc2cc(Cl)ccc12 [Compound 18]	< 2.5	< 2.5	< 2.5	–
CC(C)(C)NCCCNc1c(-c2ccc(CN3CCOCC3)cc2)cnc2cc(Cl)ccc12 [Compound 15]	–	–	–	IC50 (P. falciparum strain D6; [7]): 0.8 nM; IC50 (P. falciparum strain Dd2; [8]): 0.9 nM; IC50 (P. falciparum strain 7G8; [9]): 0.9 nM
CC(C)(C)NCCNc1c(-c2ccc(OC(F)(F)F)cc2)cnc2cc(Cl)ccc12 [Compound 26]	–	–	–	IC50 (P. falciparum strain D6; [7]): 0.6 nM; IC50 (P. falciparum strain Dd2; [8]): 4.9 nM; IC50 (P. falciparum strain 7G8; [9]): 4.5 nM
C=C[C@H]1C[N@@]2CC[C@H]1C[C@H]2[C@H](O)c1ccnc2ccc(OC)cc12 [Quinine, reference compound]	19	87	30	IC50 [1, 13]: 96 nM
CC(C)(C)NCCCNc1c(-c2ccc(C(F)(F)F)nc2)cnc2cc(Cl)ccc12 [Compound 5]	55.2	89	132	–
CC(C)(C)NCCCNc1c(-c2ccccc2)cnc2cc(Cl)ccc12 [Compound 3]	8.7	17	6.4	–
CC(C)(C)NCCCNc1c(-c2ccc(Cl)cc2)cnc2cc(Cl)ccc12 [Compound 2]	8	15	5.8	–
CC(C)(C)NCCCNc1c(-c2ccc(OC(F)(F)F)cc2)cnc2cc(Cl)ccc12 [Compound 1, N1-(tert-butyl)-N3-(7-chloro-3-(4-(trifluoromethoxy)phenyl)-quinolin-4-yl)-propane-1,3-diamine]	0.9	1.4	1.3	IC50 (hERG potassium channel): 4000 nM; IC50 [2]: 4980 nM; Affinity for free heme [3]: strong affinity for free heme; ED50 (P. yoelii; gavage daily Days 1-4, parasitemia Day 5, drugs given as salts): 0.25 mg/kg/day; Cure of animals (P. yoelii; at 16 and 64 mg/kg/day): cured all animals; IC50 (P. falciparum strains; Plasmodium falciparum, average over strains, read-out: Avg IC50 values vs P. falciparum strains): 1.2 nM; IC50 [1, 13]: 1.3 nM
CCN(CC)CCNc1c(-c2ccc(OC(F)(F)F)cc2)cnc2cc(Cl)ccc12 [Compound 23]	35	80	93	–
CC(C)(C)NCCCNc1c(-c2ccc(F)cc2)cnc2cc(Cl)ccc12 [Compound 10]	–	–	–	IC50 (P. falciparum strain D6; [7]): 13.1 nM; IC50 (P. falciparum strain Dd2; [8]): 11.7 nM; IC50 (P. falciparum strain 7G8; [9]): 32.8 nM
CC(C)(C)NCCCNc1c(-c2ccc(OC(F)F)cc2)cnc2cc(Cl)ccc12 [Compound 13]	2.4	4.9	5.6	–
CN(C)c1ccc(-c2cnc3cc(Cl)ccc3c2NCCCNC(C)(C)C)cc1 [Compound 12]	5.1	7	11.7	–
CC(C)(C)NCCCNc1c(-c2ccc(C(F)(F)F)cc2)cnc2cc(Cl)ccc12 [Compound 4]	4.8	11.9	9.7	–
CCN(CC)CCCNc1c(-c2ccc(OC(F)(F)F)cc2)cnc2cc(Cl)ccc12 [Compound 24]	–	–	–	IC50 (P. falciparum strain D6; [7]): 3.4 nM; IC50 (P. falciparum strain Dd2; [8]): 4.4 nM; IC50 (P. falciparum strain 7G8; [9]): 8.5 nM
FC(F)(F)Oc1ccc(-c2cnc3cc(Cl)ccc3c2NCCC2CCCCN2)cc1 (stereo not shown) [Compound 22]	0.7	1.8	< 2.5	–
O=C1C(O)=C([C@H]2CC[C@H](c3ccc(Cl)cc3)CC2)C(=O)c2ccccc21 [Atovaquone, reference compound]	0.1	0.1	0.1	IC50 [1, 13]: 7700 nM
COc1ccc(-c2cnc3cc(Cl)ccc3c2NCCCNC(C)(C)C)cc1 [Compound 11]	9.5	11.7	20.6	–
CC(C)(C)NCCCNc1c(-c2ccc(N3CCOCC3)cc2)cnc2cc(Cl)ccc12 [Compound 14]	4.4	6.7	8.2	–
CCN(CC)CCCC(C)Nc1c(-c2ccc(OC(F)(F)F)cc2)cnc2cc(Cl)ccc12 (stereo not shown) [Compound 25]	3.5	7.8	11.1	–
CC(C)(C)NCCCNc1c(-c2ccc(C#N)cc2)cnc2cc(Cl)ccc12 [Compound 17]	13.5	21.8	26.3	–
CC(C)(C)NCCCNc1c(-c2ccc(Br)cc2)cnc2cc(Cl)ccc12 [Compound 16]	–	–	–	IC50 (P. falciparum strain D6; [7]): < 2.5 nM; IC50 (P. falciparum strain Dd2; [8]): < 2.5 nM; IC50 (P. falciparum strain 7G8; [9]): 2.5 nM
CC(C)(C)NCCCNc1c(-c2ccc(Oc3ccc(OC(F)(F)F)cc3)cc2)cnc2cc(Cl)ccc12 [Compound 6]	2.3	3.3	1.6	–
CC(C)(C)NCCCNc1c(-c2ccc(-c3ccc(OC(F)(F)F)cc3)cc2)cnc2cc(Cl)ccc12 [Compound 8]	–	–	–	IC50 (P. falciparum strain D6; [7]): 5.3 nM; IC50 (P. falciparum strain Dd2; [8]): 5.9 nM; IC50 (P. falciparum strain 7G8; [9]): 8.3 nM
CCN(CC)CCCC(C)Nc1c2ccc(Cl)cc2nc2ccc(OC)cc12 (stereo not shown) [Quinacrine, reference compound]	–	–	–	IC50 (P. falciparum strain D6; [4]): 5 nM; IC50 (P. falciparum strain Dd2; [5]): 10 nM; IC50 (P. falciparum strain 7G8; [6]): 9 nM
CC(C)(C)NCCCNc1c(-c2ccc(-c3ccccc3)cc2)cnc2cc(Cl)ccc12 [Compound 7]	0.9	2.9	1.4	–
